Laboratory results: patent US20050203188A1, “Fungicidal mixtures based on benzamideoxime derivatives, benzophenones and on an azole” (priority 2002, published 2005)

Assays:
[1] = system: Erysiphe [syn. Blumeria] graminis forma specialis tritici; assay: Activity against mildew of wheat (protective spray, potted wheat seedlings cv. Kanzler); type: in vivo; conditions: single active, 7 days after inoculation
Protocol: (§1) The active compounds are prepared separately or together as a 10% strength emulsion in a mixture of 63% by weight of cyclohexanone and 27% by weight of emulsifier and diluted with water to the desired concentration.
(§2) Evaluation is carried out by determining the infected leaf areas in percent. These percentages are converted into efficacies. The efficacy (E) is calculated as follows using Abbot's formula: E=(1−α)*100/β • α corresponds to the fungal infection of the treated plants in % and • β corresponds to the fungal infection of the untreated (control) plants in %
(§3) An efficacy of 0 means that the infection level of the treated plants corresponds to that of the untreated control plants; an efficacy of 100 means that the treated plants were not infected.
(§4) The expected efficacies of the active compound mixtures were determined using Colby's formula [S. R. Colby, Weeds 15, 20-22 (1967)] and compared with the observed efficacies. Colby's formula: E=x+y−x−y/100 • E expected efficacy, expressed in % of the untreated control, when using the mixture of the active compounds A and B at the concentrations a and b • x efficacy, expressed in % of the untreated control, when using active compound A at a concentration of a • y efficacy, expressed in % of.the untreated control, when using active compound B at a concentration of b
Leaves of potted wheat seedlings of the cultivar “Kanzler” were sprayed to runoff point with an aqueous suspension having the concentration of active compound stated below. The suspension or emulsion had been prepared from a stock solution comprising 10% of active compound in a mixture consisting of 85% of cyclohexanone and 5% of emulsifier. 24 hours after the spray coating had dried on, the seedlings were dusted with spores of mildew of wheat (Erysiphe [syn. Blumeria] graminis forma specialis tritici). The test plants were then placed in a greenhouse at temperatures between 20 and 24° C. and 60 to 90% relative atmospheric humidity. After 7 days, the extent of the mildew development was determined visually in % infection of the total leaf area.
The visually determined percentages of infected leaf area were converted into efficacies as % of the untreated control. An efficacy of 0 means the infection level of the treated plants corresponds to that of the untreated control; an efficacy of 100 means 0% infection. The expected efficacies of the combinations of active compounds were determined using Colby's formula (Colby, S. R. “Calculating synergistic and antagonistic responses of herbicide Combinations”, Weeds, 15, pp., 20-22, 1967) and compared with the observed efficacies.

Puccinia recondita = assay: Curative activity against brown rust of wheat (potted wheat seedlings cv. Kanzler); type: in vivo; conditions: single active, 7 days
Protocol: as §1, §2, §3, §4
Leaves of potted wheat seedlings of the cultivar “Kanzler” were dusted with spores of brown rust (Puccinia recondita). The pots were then placed in a chamber with high atmospheric humidity (90 to 95%), at 20 to 22° C., for 24 hours. During this period of time, the spores germinated and the germinal tubes penetrated into the leaf tissue. The next day, the infected plants were sprayed to runoff point with an aqueous suspension having the concentration of active compound stated below. The suspension or emulsion had been prepared from a stock solution comprising 10% of active compound in a mixture consisting of 85% of cyclohexanone and 5% of emulsifier. After the spray coating had dried on, the test plants were cultivated in a greenhouse at temperatures between 20 and 22° C. and at 65 to 70% relative atmospheric humidity for 7 days. The extent of the rust fungus development on the leaves was then determined.
The visually determined percentages of infected leaf areas were converted into efficacies as % of the untreated control. An efficacy of 0 means that the infection level of the treated plants corresponds to that of the untreated control; an efficacy of 100 means 0% infection. The expected efficacies of the combinations of active compounds were determined using Colby's formula (Colby, S. R. “Calculating synergistic and antagonistic responses of herbicide Combinations”, Weeds, 15, pp. 20-22, 1967) and compared with the observed efficacies.

Structure (SMILES) | Efficacy in % of the untreated control ([1]; 0.015 ppm in spray liquor) [%] | Efficacy in % of the untreated control ([1]; 0.06 ppm in spray liquor) [%] | Efficacy in % of the untreated control ([1]; 0.25 ppm in spray liquor) [%] | Efficacy in % of the untreated control ([1]; 1 ppm in spray liquor) [%] | Efficacy in % of the untreated control (Puccinia recondita; 0.015 ppm in spray liquor) [%] | Efficacy in % of the untreated control (Puccinia recondita; 0.06 ppm in spray liquor) [%] | Efficacy in % of the untreated control (Puccinia recondita; 0.25 ppm in spray liquor) [%] | Efficacy in % of the untreated control (Puccinia recondita; 1 ppm in spray liquor) [%]
COc1cc(C)c(C(=O)c2c(OC)ccc(Br)c2C)c(OC)c1OC [Compound II = metrafenone, metrafenone] | 33 | 44 | 56 | 72 | 0 | 0 | 0 | 0
COC(=O)N(OC)c1ccccc1COc1ccn(-c2ccc(Cl)cc2)n1 [Compound IV = pyraclostrobin, pyraclostrobin] | 0 | 0 | 0 | 33 | 22 | 33 | 33 | 78
Fc1ccc(C2(Cn3cncn3)OC2c2ccccc2Cl)cc1 (stereo not drawn) [Compound III = epoxiconazole, epoxiconazole] | 0 | 33 | 44 | 56 | 0 | 67 | 89 | 94
